# From paper PMC9279437, “Cytopathic SARS-CoV-2 screening on VERO-E6 cells in a large-scale repurposing effort” (Scientific Data, 2022)
# Structures can show the parent of a compound that is named as a salt. Where two headings read alike, the source gives them in different places. Peptide text beside a SMILES is read from it. * marks the point of attachment. Cbz = O=C(OCc1ccccc1)*
# Legend:
# [1] = test system: SARS-CoV-2
# [2] = in vitro; settings: Chlorocebus sabaeus (African green monkey)
# [3] = test system: SARS-CoV-2; test: microbe, parasite or virus in culture
# [4] = Cytotoxicity assessment in dose response without virus infection; settings: Chlorocebus sabaeus (African green monkey)
# [5] = test system: SARS CoV-2; parameters: method as in PMID 32473310; settings: VERO-E6 cells; cited from earlier work
# [6] = test system: coronavirus OCR43; parameters: method as in PMID 33324406; settings: LLC-MK2 cells; cited from earlier work
# [7] = test system: Vero E6 EGFP cells; test: Cytotoxicity assessment in dose response without virus infection; settings: cytotoxicity in the absence of virus, Vero E6 EGFP, 33 µM to 10 nM
# [8] = test system: SARS-CoV-2; test: Primary anti-cytopathicity assay development: control compound profiling, 384-well plates; assay type: cell-based, Severe acute respiratory syndrome coronavirus 2; settings: mean
# [9] = test system: Vero E6 EGFP cells
# [10] = ratio of cytotoxic to anti-cytopathic effects
# [11] = Severe acute respiratory syndrome coronavirus 2, Vero C1008, 96 h
# [12] = Severe acute respiratory syndrome coronavirus 2, read-out: Average IC50, d3 of incubation, 4000 cells seeded
# [13] = Severe acute respiratory syndrome coronavirus 2, read-out: Average IC50, d3 of incubation, 8000 cells seeded
# [14] = Severe acute respiratory syndrome coronavirus 2, read-out: Average IC50, d4 of incubation, 4000 cells seeded
# [15] = Severe acute respiratory syndrome coronavirus 2, read-out: Average IC50, d4 of incubation, 8000 cells seeded
# [16] = Severe acute respiratory syndrome coronavirus 2, read-out: Average IC50, d5 of incubation, 4000 cells seeded
# [17] = Severe acute respiratory syndrome coronavirus 2, read-out: Average IC50, d5 of incubation, 8000 cells seeded
compound,measurement,setting,value
CNCc1ccc(-c2cc(-c3nc(-c4ccc(S(=O)(=O)C(C)C)cc4)cnc3N)on2)cc1 [VE-822],IC50,[1],< 20 µM
same,SI (CC50/IC50),[1]; [10],3.75
same,CC50 at 4 days,[2],10 µM
O=C1OC2(c3ccc(O)cc3Oc3cc(O)ccc32)c2ccccc21 [Fluorescein],SI (CC50/IC50),[1]; [10],49.25
same,IC50,[3]; [11],0.67 µM
same,CC50 at 4 days,[4],> 33 µM
CC(C)COCC(CN(Cc1ccccc1)c1ccccc1)N1CCCC1 (centres unmarked) [Bepridil],CC50 at 4 days,[4],23.4 µM
O=C(c1ccc(OCCN2CCCCC2)cc1)c1c(-c2ccc(O)cc2)sc2cc(O)ccc12 [Raloxifene hydrochloride],IC50,[1],15.4 µM
same,SI (CC50/IC50),[1],2.14
same,activity in phenotypic assay of SARS CoV-2 viral infection,[5],active
same,activity against coronavirus OCR43,[6],active
same,IC50,[3]; [11],< 20 µM
same,CC50 at 4 days,[4],> 33 µM
Nc1nc2c(ncn2[C@@H]2O[C@H](CO)[C@@H](O)[C@H]2O)c(=S)[nH]1 [Thioguanosine],CC50,[2],> 33 µM
O=C(Nc1ccc([N+](=O)[O-])cc1Cl)c1cc(Cl)ccc1O [Niclosamide],SI (CC50/IC50),[1],8.05
same,IC50,[3]; [11],4.1 µM
same,CC50 at 4 days,[4],> 33 µM
Cc1cccc(Nc2nc(-c3ccncc3)cs2)c1 [STF-62247],CC50,[7],31.5 µM
CCN(CC)Cc1cc(Nc2ccnc3cc(Cl)ccc23)ccc1O [Amodiaquine],SI (CC50/IC50),[1],4.12
same,IC50,[3]; [11],4.07 µM
same,CC50 at 4 days,[4],16.8 µM
"COc1ccc2cc1Oc1ccc(cc1)C[C@H]1c3cc(c(OC)cc3CCN1C)Oc1c(OC)c(OC)cc3c1[C@H](C2)N(C)CC3 [Tetrandrine (Fanchinine), Tetrandrine]",CC50 at 4 days,[4],> 33 µM
"CCN(CC)CCCC(C)Nc1ccnc2cc(Cl)ccc12 (centres unmarked) [Chloroquine, chloroquine]",IC50,[8]; [12],11.3 µM
same,IC50,[8]; [13],8.69 µM
same,IC50,[8]; [14],13.4 µM
same,IC50,[8]; [15],13.5 µM
same,IC50,[8]; [16],13.5 µM
same,IC50,[8]; [17],17.1 µM
O=C(c1c2ccccc2cc2ccccc12)N1CCC(N2CCC[C@@H](C(=O)N3CCOCC3)C2)CC1 [CP-640186],CC50,[7],10.2 µM
OCCNC1CCCc2c1[nH]c1ccc(-c3ccccc3)cc21 (centres unmarked) [casin],CC50,[9],> 33 µM
"CCN(CCO)CCCC(C)Nc1ccnc2cc(Cl)ccc12 (centres unmarked) [Hydroxychloroquine, hydroxychloroquine]",IC50,[8]; [12],16.4 µM
same,IC50,[8]; [13],15.8 µM
same,IC50,[8]; [14],21 µM
same,IC50,[8]; [15],25.8 µM
same,IC50,[8]; [17],43.6 µM
Cc1c(O)cccc1C(=O)N[C@@H](CSc1ccccc1)[C@H](O)CN1C[C@H]2CCCC[C@H]2C[C@H]1C(=O)NC(C)(C)C [[…]],CC50,[2],> 33 µM
O=C(c1c2ccccc2cc2ccccc12)N1CCC(N2CCC[C@@H](C(=O)N3CCOCC3)C2)CC1 [CP-640186 (hydro-chloride)],CC50,[9],10.9 µM
"Cc1cccc(C)c1OCC(=O)N[C@@H](Cc1ccccc1)[C@@H](O)C[C@H](Cc1ccccc1)NC(=O)[C@H](C(C)C)N1CCCNC1=O [Lopinavir, lopinavir]",IC50,[8]; [12],9.21 µM
same,IC50,[8]; [13],7.58 µM
same,IC50,[8]; [14],11.3 µM
same,IC50,[8]; [15],12 µM
same,IC50,[8]; [17],21.1 µM
"CN1CCN(C2CCN(C(=O)Nc3cc(Oc4ccc(NC(=O)C5(C(=O)Nc6ccc(F)cc6)CC5)c(F)c4)ccn3)CC2)CC1 [Golvatinib (E7050), Golvatinib]",SI (CC50/IC50),[1]; [10],5.60
same,CC50 at 4 days,[2],> 33 µM
same,IC50,[3]; [11],5.89 µM
"CCC(CC)COC(=O)[C@H](C)N[P@](=O)(OC[C@H]1O[C@@](C#N)(c2ccc3c(N)ncnn23)[C@H](O)[C@@H]1O)Oc1ccccc1 [Remdesivir, remdesivir]",IC50,[8]; [12],2.73 µM
same,IC50,[8]; [13],1.56 µM
same,IC50,[8]; [14],3.74 µM
same,IC50,[8]; [15],2.27 µM
same,IC50,[8]; [16],4.67 µM
same,IC50,[8]; [17],2.99 µM
same,IC50,"[3]; Severe acute respiratory syndrome coronavirus 2, Vero C1008, read-out: IC50 (%Confluence versus compound concentration), positive control, curve fitting example Fig. 4",1.7 µM
COc1ccc2c(c1)[C@]1(C[C@H]1c1ccc3c(/C=C/c4ccc(CN5C[C@@H](C)O[C@@H](C)C5)cc4)n[nH]c3c1)C(=O)N2 [CFI-400945],CC50 at 4 days,[2],> 33 µM
CCCCN(CCCC)CCC(O)c1cc2c(Cl)cc(Cl)cc2c2cc(C(F)(F)F)ccc12 (centres unmarked) [Halofantrine hydrochloride],CC50 at 4 days,[4],> 33 µM
CCN(CC)c1ccc2cc(-c3nc4ccccc4[nH]3)c(=O)oc2c1 [Coumarin 7],IC50,[1],0.36 µM
same,SI (CC50/IC50),[1],91.67
Nc1nc2nn[nH]c2c(=O)[nH]1 [8-Azaguanine],SI (CC50/IC50),[1],2.79
same,CC50,[2],10.4 µM
same,IC50,[3]; [11],3.72 µM
CC(C)C[C@@H](C=O)NC(=O)[C@H](CC(C)C)NC(=O)[C@H](CC(C)C)NC(=O)OCc1ccccc1 [MG-132] (Cbz-Leu-Leu-Leu-aldehyde),CC50 at 4 days,[4],2.9 µM
CCCCCCCCCCCCCCOc1ccc(C(=O)O)o1 [KD-023],IC50,[1],4.04 µM
same,SI (CC50/IC50),[1]; [10],8.17
Cc1cc(O[C@@H](CCC(F)(F)F)c2ccc(C(=O)NCCC(=O)O)cc2)cc(C)c1-c1ccc(C(C)(C)C)cc1 [Adomeglivant],CC50 at 4 days,[2],> 33 µM
COc1cc(NCc2ccc3nc(N)nc(N)c3c2C)cc(OC)c1OC [Trimetrexate],IC50,[1],< 20 µM
same,CC50 at 4 days,[4],1.99 µM
Nc1ncnc2c1ncn2[C@@H]1CC[C@@H](O)[C@H]1O [DHCaA],CC50,[9],15.7 µM
CC(C)(O)CNc1ncc(-c2ccnc(Nc3ccnc(Cl)c3)n2)c(CC2CC2)n1 [VPS34-IN-1],CC50,[2],26.8 µM
Cc1[nH]c(/C=C2\C(=O)Nc3ccc(S(=O)(=O)Cc4c(Cl)cccc4Cl)cc32)c(C)c1C(=O)N1CCC[C@@H]1CN1CCCC1 [PHA-665752],CC50,[2],> 33 µM
Nc1c[nH]c(=O)c2cc(-c3ccccc3)sc12 [Thieno-pyridone],IC50,[1],5.26 µM
same,SI (CC50/IC50),[1]; [10],6.27
same,CC50,[9],> 33 µM
Rhodamine-123,IC50,[1],0.8 µM
same,SI (CC50/IC50),[1]; [10],41.25
C[C@@H]1C[C@@H]([C@H](O)CC2CC(=O)NC(=O)C2)C(=O)[C@@H](C)C1 [Cycloheximide],CC50,[2],10.2 µM
3'-fluoro-benzyl-spiperone,CC50,[7],27.4 µM
CCN(CC)CCOc1ccc(C(=C(Cl)c2ccccc2)c2ccccc2)cc1 [Clomiphene citrate],CC50 at 4 days,[4],> 33 µM
CC(=O)[C@]1(N)Cc2c(O)c3c(c(O)c2[C@@H](O[C@H]2C[C@H](O)[C@H](O)CO2)C1)C(=O)c1ccccc1C3=O [Amrubicin],SI (CC50/IC50),[1]; [10],100.00
same,CC50,[2],> 33 µM
same,IC50,[3]; [11],0.33 µM
"COc1cc2c(N3CCN(C(=O)Nc4ccc(OC(C)C)cc4)CC3)ncnc2cc1OCCCN1CCCCC1 [Tandutinib (MLN518), Tandutinib]",IC50,[1],< 20 µM
same,CC50,[2],> 33 µM
Cc1cc(O)c2c(=O)c3c(O)cc(O)c4c5c(O)cc(O)c6c(=O)c7c(O)cc(C)c8c1c2c(c34)c(c78)c65 [Hypericin],SI (CC50/IC50),[1]; [10],5.24
same,CC50,[2],1.31 µM
same,IC50,[3]; [11],0.25 µM
CCN1CCN(Cc2ccc(-c3cc4c(N[C@H](C)c5ccccc5)ncnc4[nH]3)cc2)CC1 [AEE788],SI (CC50/IC50),[1]; [10],8.38
same,IC50,[3]; [11],3.94 µM
same,CC50 at 4 days,[4],> 33 µM
CC(C)(C)NCc1ccc(Nc2ccnc3cc(Cl)ccc23)cc1O [N-tert-Butylisoquine],CC50 at 4 days,[2],12.4 µM
"Cc1ccc(NC(=O)c2ccc(CN3CCN(C)CC3)cc2)cc1Nc1nc(-c2cccnc2)cs1 [Masitinib (AB1010), Masitinib]",IC50,[3]; [11],< 20 µM
same,CC50 at 4 days,[4],> 33 µM
Nc1cc2c3ccccc3ccc2c2ccccc12 [6-amino-chrysene],SI (CC50/IC50),[1]; [10],2.84
same,CC50,[2],> 33 µM
same,IC50,[3]; [11],11.6 µM
COc1cc(C[C@H]2c3cc(OC)c(OC)cc3CCN2C)c(Oc2cc3c(cc2OC)-c2c(OC)c(OC)cc4c2[C@H](C3)N(C)CC4)cc1OC [Thaliblastine],IC50,[1],3.87 µM
same,SI (CC50/IC50),[1]; [10],8.53
